Assay results published in US12083084B2, “Method for enhancing energy production and metabolism in cells” (REPLICON HEALTH OY, priority 2013, dated 2024).
Several values for one entry are separate records, joined by “and”; a condition that tells them apart may be missing. Equal values may be shown once. Entries after “also recorded” stand apart in the source; their conditions may differ.

Assays:
[1] = tested on: primary human hepatocytes; assay: Cellular ROS detection (DCFDA) in primary human hepatocytes; format: cell-based; settings: for ROS production compared to 0 dose/control: donor four, High Medium, FIG. 5; for ROS compared to 0 dose/control (in words): moderate metabolic stress (1.5-2 h after change of medium)
Protocol: Primary human hepatocytes were purchased from Celsis In Vitro Technologies (1450 South Rolling Road Baltimore, MD 21227, USA). […] According to the information provided by the Celsis, hepatocytes from each donor should have at least 70% viability and more than 5 million viable cells. The medium for the culture of hepatocytes was provided by Celsis. They were InVitroGRO CP (for plating) medium (Z99029) and InVitroGRO HI (for incubation) medium (Z99009). Antibiotics (Torpedo Antibiotics Mix, Z990007) were also from Celsis. The thaw, plating and culture of cells were carried out according to the instruction provided by the Celsis In Vitro Technologies.
For the measurement of cell viability after treatment of test compound, CytoTox-One Homogeneous Membrane Integrity Assay kit (Promega, G7891) was used. The CytoTox-One Assay is a rapid fluorescent measure of the release of lactate dehydrogenase (LDH) from cells with a damaged membrane. The number of […] cells correlates to the fluorescence intensity determined by a fluorescence plate reader (Hidex Chameleon V multiplate reader, Hidex Oy, Turku, Finland) with excitation 544 nm and emission 590 nm. For the measurement of cellular reactive oxygen species (ROS), DCFDA Cellular ROS Detection Assay Kit from Abcam (ab113851) was used. Reactive oxygen species (ROS) assay kit (ab113851) uses the cell permeant reagent 2′,7′-dichlorofluorescein diacetate (DCFDA), a fluorogenic dye that measures hydroxyl, peroxyl and other ROS activity with the cell. The activity of ROS was measured by a fluorescence plate reader (Hidex) with excitation/emission wavelengths of 485 nm/535 nm.
The culture of primary hepatocytes was carried out based on the instructions provided by Celsis. After thawing, the cells were suspended in InVitroGRO CP medium. Thereafter the viability of cells was determined using the Trypan Blue exclusion method. Then the concentration of cells was adjusted using InVitroGRO CP medium, so about 30000-35000 cells/100 μl/well can be seeded in collagen I coated 96 well plate (BD, 734-0248).
After seeding, the cells were cultured overnight in the cell culture incubator (Sanyo MCO 18) at atmosphere of 95% air, 5% CO2 at 37° C. Thereafter, the culture medium for the cells was changed to InVitroGRO Hi (Hi Medium) containing test compound (D-glyceric acid calcium salt dehydrate) at the concentrations of 0, 0.2, 2 and 20 μg/ml (study 1, Table 1.1.1) and 0, 0.4, 2 and 10 μg/ml (study 2, Table 1.1.2).
In study 3 also LGA and HPA were tested and compared to DGA (see FIGS. 11c and 11d) with same doses as in study 2.
In studies 2-4 additional diet with 0.75 mM of palmitic acid (“fatty acid diet”) was added to Hi Medium. Hi Medium in itself contains ample amounts of glucose and fructose and other necessary ingredients for keeping viability of the cell culture at optimal level.
After 24 h (in study 1) and 20 h (in studies 2-4) incubation medium was renewed. Second renewal of the incubation medium occurred at 48 h in study 1 and at 40 h in other studies. ROS and LDH were measured after 1.5-2 hours after last change of the medium, i.e. in a situation with moderate metabolic stress.
The measurement of cellular reactive oxygen species (ROS) was carried out according to the instruction of Abcam (ab113851). At the end of treatment time point, culture medium was taken away for leaked LDH measurement and cells were washed with 100 μl/well PBS once. Thereafter 100 μl/well of DCDA mix was added and incubated for 45 min at 37° C. in the dark. Then cells were washed once with 1× buffer solution. The fluorescence signal was measured at an excitation wavelength of 485 nm and emission wavelength of 535 nm using the Hidex Chameleon V multiplate reader (Hidex Oy, Turku, Finland).
For the LDH and ROS assays, individual values of each measurement were stored and average value of fluorescence signals of various repeats of each treatment at studied time point were calculated and compared. […]

[2] = First set of clinical in vivo experiments, fasting blood test (Example 2.1); design: species or system human; settings: for Headache after stopping twice a day administration: subjects S1-S3 (N = 3), 20-48 hours after last administration
Protocol: In the first set of experiments presented in Example 2.1 all the blood measurements were conducted next day after last administration of DGAcs. In the longer experiments doses (3-5 mg/kg) were typically taken once a day (preferably in the evening before going to bed). In shorter 1-4 day experiments doses were taken twice a day, in the morning and before going to bed. In all experiments in Example 2.2 the last DGAcs dose was double in size (some 8 mg/kg), and it was taken in the same morning as the collection of blood samples. Relatively high dose and short time to measurement was chosen in order to see clearer dose response in gene expression from peripheral leukocytes, and also from collected plasma samples.
Eight (8) persons completed controlled clinical testing with standard 10-12 hour fasting diet (f) blood test (sample analytics by United Medix Laboratories, Finland). There were four different types of clinical tests: first a 3 week test with low dose of DGA (N=3), secondly one 11 day test with bigger dose (N=1), and finally a 4 day test with high dose (N=4) and with low dose of DGA (N=2). Subjects 1 and 4 (in table 3) did the first three week test and then some months later also the separate 4 day test.
Daily doses varied from 3-4 mg/kg/day in 3 week test to 6 mg/kg twice a day in 4 day test. General rule in the studies was that the shorter the period the higher the dose. In three week clinical tests fasting blood standard lipid panel and other basic readings were measured at the beginning and at the end of the test period.
In the 4 day tests very wide fasting blood panel consisting of 25 different metrics was measured (see table 3 below), and additionally for some participants full blood count to measure more precise effect on erythrocytes and hemoglobin was carried out.
Unlike in hepatocytes study (Example 1) clinical experiments were conducted in a fasting diet situation. Challenges for obtaining meaningful health indications from DGAcs administration arises from the fact that the study persons (aged 41-73) were all healthy volunteers, i.e. the blood values were mostly at very good levels, and thus improvements from the control are hard to achieve. Nevertheless the results from clinical testing show clear signs on the efficacy of DGA in improving systemic redox state of especially the cardiovascular system and also clear indications of increased overall metabolic flux. Specific markers for functioning of liver, kidneys, pancreas and spleen show improvement in general (see Table 4).

[3] = 4 day, 5-6 mg/kg twice a day, healthy lean subjects S1-S4, fasting blood, change from zero control
[4] = 4 day, 5-6 mg/kg twice a day, healthy lean subjects S1-S4, fasting blood, change from zero control, listed as DGA calcium salt
[5] = S4 (healthy person), after 4 day test, fasting blood

O=C(O)[C@H](O)CO [DGA, D-glyceric acid]
ROS production compared to 0 dose/control ([1]; 1.5 h after new medium (moderate metabolic stress), 1.4 μM): Significant efficacy | ROS production compared to 0 dose/control ([1]; 1.5 h after new medium, 0.14 μM): no effect | ROS production compared to 0 dose/control ([1]; 1.5 h after new medium, 14 μM (2 μg/ml)): Biggest ROS scavenging effect | decline of ROS compared to control ([1]; donor one, Hi Medium+Palmitic acid, FIG. 11a): same decline | amount of ROSs decreased by ([1]; primary human hepatocytes, metabolic stress situation): 15-40% | ROS compared to 0 dose/control (in words) ([1]; primary human hepatocytes): decreases ROS | ROS scavenging in equimolar comparison against vitamin E, glutathione, vitamin C (and morin dehydrate) ([1]; study 4, donors alpha (FIG. 5) and (FIG. 6), 14 μM): superior or at least as good ROS scavenger; also recorded: superior antioxidant | fS-Trigly, increases in blood triglycerides ([2]; 5 subjects): Observed 25-50% increases in blood triglycerides | Headache after stopping twice a day administration ([2]; 4 day test): some symptoms of headache after 20-48 | fS-Lactate dehydrogenase (LDH), average decline ([2]; healthy volunteers (N = 3), 4 day test): some 4%. (Subject 3 | fS-Na (Sodium), average decline ([2]; healthy volunteers (N = 4), 4 day test): ~1.5%. | fS-Urate (uric acid), average decline ([2]; healthy volunteers (N = 6), 4 day test): test; average decline some 6%. | fS-Cholesterol, average decline ([2]; healthy volunteers (N = 8)): (only some 3-5%). | fS-Chol.-HDL, average decline ([2]; healthy volunteers (N = 8), all periods and doses): ~6%. | Diuretic effects ([2]; non-acute dose): Sodium decline in most | fS-Urea, average decline ([2]; non-acute dose): some 7-8%. | CK, creatinine kinase, average reduction in values ([2]; non-acute dose, N = 4): On average 25% reduction in values (N = 4). | Bilirubin conj., average reduction in values ([2]; non-acute dose, N = 6): On average 20% reduction in values. N = 6 | Bilirubin, average reduction in values ([2]; non-acute dose, N = 6): On average some 20% reduction in values. | fS-Asat, average reduction in values ([2]; non-acute dose, N = 6): On average 15-20% reduction | fS-Fe, average reduction in values ([2]; non-acute dose, N = 6): On average 15% reduction in values. N = 6 | fS-Alat ([2]; non-acute dose, N = 8, when values were higher in the recommended range): improvement was observed, when values

O.O.O=C([O-])[C@H](O)CO.O=C([O-])[C@H](O)CO.[Ca+2] [DGAcs, D-glyceric acid, calcium salt dehydrate]
ROS compared to 0 dose/control (in words) ([1]; primary human hepatocytes): decrease ROS levels significantly; also recorded: reduced ROS | Headache after stopping twice a day administration ([2]; 4 day test): slight headache | HDL, 4 day change [2, 3]: −5% | LDL, 4 day change [2, 3]: 2% | S-Afos, 4 day change [2, 3]: −2% | S-Alb, 4 day change [2, 3]: −2% | S-Amyl, 4 day change [2, 3]: 65% | S-Bil, 4 day change [2, 3]: −12.6% and −19% | S-Bil-Kj, 4 day change [2, 3]: −17% | S-CK, 4 day change [2, 3]: −22% | S-Cal, 4 day change [2, 3]: −2% | S-GT, 4 day change [2, 3]: 11% | S-K, 4 day change [2, 3]: −2% | S-LD (LDH), 4 day change [2, 3]: −4% | S-Mg, 4 day change [2, 3]: −2% | S-Na, 4 day change [2, 3]: −1% | S-Uraat, 4 day change [2, 3]: −9.9% and −5% | fS-Gluk, 4 day change [2, 3]: 2% | fS-Kol, 4 day change [2, 3]: −2% | fS-Krea, 4 day change [2, 3]: −4% | fS-Pi, 4 day change [2, 3]: 18% | fS-Transf, 4 day change [2, 3]: 10% | fS-Transferr.satur., 4 day change [2, 3]: −32% | fS-Urea, 4 day change [2, 3]: −7% | HDL, 4 day change [2, 4]: −4.5% and −3.3% and −9.1% and −5.9% | S-Afos, 4 day change [2, 4]: −2.1% and 0.0% and −5.8% and −6.3% | S-Alb, 4 day change [2, 4]: −2.2% and 0.0% | S-Cal, 4 day change [2, 4]: −1.7% and 0.0% and −2.2% and −2.5% | S-LD (LDH), 4 day change [2, 4]: −3.7% and −4.2% and −4.8% | S-Mg, 4 day change [2, 4]: −2.4% and 6.3% and −3.6% and 2.2% | S-Na, 4 day change [2, 4]: −1.4% and −2.1% and 0.7% | S-Uraat, 4 day change [2, 4]: −5.2% and −3.2% and −12.0% and −9.9% | fS-Kol, 4 day change [2, 4]: −1.6% and −5.7% and −6.4% and −3.2% | fS-Krea, 4 day change [2, 4]: −4.4% and −11.1% and −5.0% and −8.5% | AST/ALT (ratio) after treatment ([2]; S1, earlier 4 day test (zero control 1.36)): 1.05 | AST/ALT [2, 5]: 1.10 | S-Bil [2, 5]: 9.7 | S-Uraat [2, 5]: 246 | fS-Fe [2, 5]: 20.2 | fS-Trigly [2, 5]: 1.73 | average decline in blood urea ([2]; after 4 and 4.5 day administrations): approximately 9%
